Measured values reported in ChEMBL document CHEMBL1124687, “Analogues of atriopeptin(103-125)amide having high binding selectivity” (J Med Chem, 1989).
Positions of bridges follow the written chain, without caps; N, C: chain ends. Non-standard residues stand in square brackets, D forms with d. Residues, ends and D or L forms follow the SMILES beside them. ξ: configuration not given here. Nva = CCC[C@H](N)C(=O)O; Abu = CC[C@H](N)C(=O)O; ξA = CC(N)C(=O)O

Columns and labels:
Oryctolagus cuniculus = species: Oryctolagus cuniculus; test: Binding affinity for vasorelaxant receptor by competitive displacement of [125I]-AP(103-126) from rabbit lung membranes; format: tissue-based; conditions: Membrane
[1] = biological target: T1, Atrial natriuretic peptide receptor 3 (Homo sapiens) (UniProt P17342); test: Binding affinity for non-vasorelaxant receptor by competitive displacement of [125I]-AP(103-126) from rabbit lung membranes; format: tissue-based; conditions: Oryctolagus cuniculus, Membrane, target entry is the homologue from another species
T1 sequence (whole entry): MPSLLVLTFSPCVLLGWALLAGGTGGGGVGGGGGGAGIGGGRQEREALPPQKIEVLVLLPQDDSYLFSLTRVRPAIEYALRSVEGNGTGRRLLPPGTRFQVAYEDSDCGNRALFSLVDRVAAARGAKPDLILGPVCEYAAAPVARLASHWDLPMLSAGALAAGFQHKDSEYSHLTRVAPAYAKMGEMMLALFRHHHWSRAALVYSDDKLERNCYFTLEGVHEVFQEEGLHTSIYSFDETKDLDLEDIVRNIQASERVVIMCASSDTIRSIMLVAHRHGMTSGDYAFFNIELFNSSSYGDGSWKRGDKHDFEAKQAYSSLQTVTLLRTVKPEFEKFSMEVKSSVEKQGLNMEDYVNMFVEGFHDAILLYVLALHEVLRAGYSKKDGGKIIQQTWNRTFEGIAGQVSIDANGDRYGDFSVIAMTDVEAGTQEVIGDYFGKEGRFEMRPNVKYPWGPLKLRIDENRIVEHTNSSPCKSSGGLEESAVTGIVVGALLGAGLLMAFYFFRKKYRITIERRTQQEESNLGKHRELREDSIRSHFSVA

[2] = biological target: Atrial natriuretic peptide receptor (Homo sapiens) (UniProt P20594+P16066+P17342); test: Selectivity factor, ratio of NVR and VR relative binding potency; format: protein assay; conditions: Oryctolagus cuniculus

Compound	Relative potency (Oryctolagus cuniculus)	Relative potency [1]	Ratio [2]
CC[C@H](C)[C@@H]1NC(=O)[C@H](CCCN=C(N)N)NC(=O)[C@H](CC(=O)O)NC(=O)[C@H]([C@@H](C)CC)NC(=O)[C@H](CCCN=C(N)N)NC(=O)[C@@H](NC(=O)CNC(=O)[C@H](Cc2ccccc2)NC(=O)CNC(=O)[C@H](CO)NC(=O)[C@@H](N)CO)CSSC[C@@H](C(=O)N[C@@H](CC(C)C)C(=O)NCC(=O)NCC(=O)N[C@@H](CC(N)=O)C(=O)N[C@@H](CO)C(=O)N[C@@H](Cc2ccccc2)C(=O)N[C@@H](CCCN=C(N)N)C(N)=O)NC(=O)[C@H](CO)NC(=O)[C@H](CCC(N)=O)NC(=O)[C@H](C)NC(=O)CNC1=O (H-SSGFGCRIDRIGAQSCLGGNSFR-NH2; disulfide 6-16)	0.00072	0.81	1120
CC[C@H](C)[C@@H]1NC(=O)[C@H](CCCN=C(N)N)NC(=O)[C@H](CC(=O)O)NC(=O)[C@H]([C@@H](C)CC)NC(=O)[C@H](CCCN=C(N)N)NC(=O)CNC(=O)CNC(=O)[C@H](Cc2ccccc2)NC(=O)[C@@H](NC(=O)[C@H](CO)NC(=O)[C@@H](N)CO)CSSC[C@@H](C(=O)N[C@@H](CSC)C(=O)N[C@@H](CC(N)=O)C(=O)N[C@@H](CO)C(=O)N[C@@H](Cc2ccccc2)C(=O)N[C@@H](CCCN=C(N)N)C(N)=O)NC(=O)[C@H](CC(C)C)NC(=O)CNC(=O)[C@H](CO)NC(=O)[C@H](CCC(N)=O)NC(=O)[C@H](C)NC(=O)CNC1=O (H-SSCFGGRIDRIGAQSGLCC(Me)NSFR-NH2; disulfide 3-18)	0.041	1.3	32
CC[C@H](C)[C@@H]1NC(=O)[C@H](CCCN=C(N)N)NC(=O)[C@H](CC(=O)O)NC(=O)[C@H]([C@@H](C)CC)NC(=O)[C@H](CCCN=C(N)N)NC(=O)CNC(=O)CNC(=O)[C@H](Cc2ccccc2)NC(=O)[C@@H](NC(=O)[C@H](CO)NC(=O)[C@@H](N)CO)CSSC[C@@H](C(=O)NC(C)C(=O)N[C@@H](CC(N)=O)C(=O)N[C@@H](CO)C(=O)N[C@@H](Cc2ccccc2)C(=O)N[C@@H](CCCN=C(N)N)C(N)=O)NC(=O)[C@H](CC(C)C)NC(=O)CNC(=O)[C@H](CO)NC(=O)[C@H](CCC(N)=O)NC(=O)[C@H](C)NC(=O)CNC1=O (some centres undefined) (H-SSCFGGRIDRIGAQSGLC[ξA]NSFR-NH2; disulfide 3-18)	0.16	0.94	6
CCC[C@@H]1NC(=O)CNC(=O)[C@H](CC(C)C)NC(=O)CNC(=O)[C@H](CO)NC(=O)[C@H](CCC(N)=O)NC(=O)[C@H](C)NC(=O)CNC(=O)[C@H]([C@@H](C)CC)NC(=O)[C@H](CCCN=C(N)N)NC(=O)[C@H](CC(=O)O)NC(=O)[C@H]([C@@H](C)CC)NC(=O)[C@H](CCCN=C(N)N)NC(=O)CNC(=O)CNC(=O)[C@H](Cc2ccccc2)NC(=O)[C@H](CCC)NC(=O)[C@@H](NC(=O)[C@@H](N)CO)CSSC[C@@H](C(=O)N[C@@H](CO)C(=O)N[C@@H](Cc2ccccc2)C(=O)N[C@@H](CCCN=C(N)N)C(N)=O)NC1=O (H-SC[Nva]FGGRIDRIGAQSGLG[Nva]CSFR-NH2; disulfide 2-20)	0.001	0.47	470
CC[C@H](C)[C@@H]1NC(=O)[C@H](CCCN=C(N)N)NC(=O)[C@H](CC(=O)O)NC(=O)[C@H]([C@@H](C)CC)NC(=O)[C@H](CCCN=C(N)N)NC(=O)CNC(=O)CNC(=O)[C@H](Cc2ccccc2)NC(=O)CNC(=O)[C@@H](NC(=O)[C@@H](N)CO)CSSC[C@H](C(=O)N[C@@H](CC(N)=O)C(=O)N[C@@H](CO)C(=O)N[C@@H](Cc2ccccc2)C(=O)N[C@@H](CCCN=C(N)N)C(N)=O)NC(=O)CNC(=O)[C@H](CC(C)C)NC(=O)CNC(=O)[C@H](CO)NC(=O)[C@H](CCC(N)=O)NC(=O)[C@H](C)NC(=O)CNC1=O	0.056	1.8	32
CC[C@@H]1NC(=O)[C@@H](NC(=O)[C@@H](N)CO)CSSC[C@@H](C(=O)N[C@@H](CC(N)=O)C(=O)N[C@@H](CO)C(=O)N[C@@H](Cc2ccccc2)C(=O)N[C@@H](CCCN=C(N)N)C(N)=O)NC(=O)CNC(=O)[C@H](CC(C)C)NC(=O)CNC(=O)[C@H](CO)NC(=O)[C@H](CCC(N)=O)NC(=O)[C@H](C)NC(=O)CNC(=O)[C@H]([C@@H](C)CC)NC(=O)[C@H](CCCN=C(N)N)NC(=O)[C@H](CC(=O)O)NC(=O)[C@H]([C@@H](C)CC)NC(=O)[C@H](CCCN=C(N)N)NC(=O)CNC(=O)CNC(=O)[C@H](Cc2ccccc2)NC1=O (H-SC[Abu]FGGRIDRIGAQSGLGCNSFR-NH2; disulfide 2-19)	0.053	2.1	40
CC[C@H](C)[C@@H]1NC(=O)[C@H](CCCN=C(N)N)NC(=O)CNC(=O)CNC(=O)[C@H](Cc2ccccc2)NC(=O)[C@H](CO)NC(=O)[C@@H](NC(=O)[C@@H](N)CO)CSSC[C@@H](C(=O)N[C@@H](CO)C(=O)N[C@@H](Cc2ccccc2)C(=O)N[C@@H](CCCN=C(N)N)C(N)=O)NC(=O)[C@H](CO)NC(=O)CNC(=O)[C@H](CC(C)C)NC(=O)CNC(=O)[C@H](CO)NC(=O)[C@H](CCC(N)=O)NC(=O)[C@H](C)NC(=O)CNC(=O)[C@H]([C@@H](C)CC)NC(=O)[C@@H](CCCN=C(N)N)NC(=O)[C@H](CC(=O)O)NC1=O	0.005	2	400
CCC[C@H](NC(=O)CNC(=O)[C@H](CC(C)C)NC(=O)CNC(=O)[C@@H]1CSSC[C@H](NC(=O)CNC(=O)[C@H](Cc2ccccc2)NC(=O)[C@H](CCC)NC(=O)[C@H](CO)NC(=O)[C@@H](N)CO)C(=O)N[C@@H](CCCN=C(N)N)C(=O)N[C@@H]([C@@H](C)CC)C(=O)N[C@@H](CC(=O)O)C(=O)N[C@@H](CCCN=C(N)N)C(=O)N[C@@H]([C@@H](C)CC)C(=O)NCC(=O)N[C@@H](C)C(=O)N[C@@H](CCC(N)=O)C(=O)N1)C(=O)N[C@@H](CC(N)=O)C(=O)N[C@@H](CO)C(=O)N[C@@H](Cc1ccccc1)C(=O)N[C@@H](CCCN=C(N)N)C(N)=O (H-SS[Nva]FGCRIDRIGAQCGLG[Nva]NSFR-NH2; disulfide 6-15)	0.00091	0.26	286
CCC[C@H](NC(=O)[C@@H]1CSSC[C@H](NC(=O)[C@H](CO)NC(=O)[C@@H](N)CO)C(=O)N[C@@H](Cc2ccccc2)C(=O)NCC(=O)NCC(=O)N[C@@H](CCCN=C(N)N)C(=O)N[C@@H]([C@@H](C)CC)C(=O)N[C@@H](CC(=O)O)C(=O)N[C@@H](CCCN=C(N)N)C(=O)N[C@@H]([C@@H](C)CC)C(=O)NCC(=O)N[C@@H](C)C(=O)N[C@@H](CCC(N)=O)C(=O)N[C@@H](CO)C(=O)NCC(=O)N[C@@H](CC(C)C)C(=O)N1)C(=O)N[C@@H](CC(N)=O)C(=O)N[C@@H](CO)C(=O)N[C@@H](Cc1ccccc1)C(=O)N[C@@H](CCCN=C(N)N)C(N)=O (H-SSCFGGRIDRIGAQSGLC[Nva]NSFR-NH2; disulfide 3-18)	0.047	0.63	13
CC[C@H](C)[C@@H]1NC(=O)[C@H](CCCN=C(N)N)NC(=O)[C@H](CC(=O)O)NC(=O)[C@H]([C@@H](C)CC)NC(=O)[C@H](CCCN=C(N)N)NC(=O)[C@@H](NC(=O)CNC(=O)[C@H](Cc2ccccc2)NC(=O)[C@H](CO)NC(=O)[C@H](CO)NC(=O)[C@@H](N)CO)CSSC[C@@H](C(=O)NCC(=O)N[C@@H](CC(C)C)C(=O)NCC(=O)N[C@@H](CO)C(=O)N[C@@H](CC(N)=O)C(=O)N[C@@H](CO)C(=O)N[C@@H](Cc2ccccc2)C(=O)N[C@@H](CCCN=C(N)N)C(N)=O)NC(=O)[C@H](CCC(N)=O)NC(=O)[C@H](C)NC(=O)CNC1=O (H-SSSFGCRIDRIGAQCGLGSNSFR-NH2; disulfide 6-15)	0.0015	0.44	293
CC[C@H](C)[C@@H]1NC(=O)[C@H](CCCN=C(N)N)NC(=O)[C@H](CC(=O)O)NC(=O)[C@H]([C@@H](C)CC)NC(=O)[C@H](CCCN=C(N)N)NC(=O)CNC(=O)CNC(=O)[C@H](Cc2ccccc2)NC(=O)[C@@H](NC(=O)[C@H](CO)NC(=O)[C@@H](N)CO)CSSC[C@@H](C(=O)N[C@@H](CC(N)=O)C(=O)N[C@@H](CO)C(=O)N[C@@H](Cc2ccccc2)C(=O)N[C@@H](CCCN=C(N)N)C(N)=O)NC(=O)CNC(=O)[C@H](CC(C)C)NC(=O)CNC(=O)[C@H](CO)NC(=O)[C@H](CCC(N)=O)NC(=O)[C@H](C)NC(=O)CNC1=O (H-SSCFGGRIDRIGAQSGLGCNSFR-NH2; disulfide 3-19)		1	1
CC[C@H](C)[C@@H]1NC(=O)[C@H](CCCN=C(N)N)NC(=O)[C@H](CC(=O)O)NC(=O)[C@H]([C@@H](C)CC)NC(=O)[C@H](CCCN=C(N)N)NC(=O)CNC(=O)CNC(=O)[C@H](Cc2ccccc2)NC(=O)[C@@H](NC(=O)[C@H](CO)NC(=O)[C@@H](N)CO)CSSC[C@@H](C(=O)NCC(=O)N[C@@H](CC(N)=O)C(=O)N[C@@H](CO)C(=O)N[C@@H](Cc2ccccc2)C(=O)N[C@@H](CCCN=C(N)N)C(N)=O)NC(=O)[C@H](CC(C)C)NC(=O)CNC(=O)[C@H](CO)NC(=O)[C@H](CCC(N)=O)NC(=O)[C@H](C)NC(=O)CNC1=O (H-SSCFGGRIDRIGAQSGLCGNSFR-NH2; disulfide 3-18)		0.91	1
